Measured values: patent US20090099094A1, “Use of Somatostatin Agonists to Treat Medullary Thyroid Carcinoma” (priority 2007, published 2009)

What was measured:
[1] = target: SSTR1 (Homo sapiens, UniProt P30872); assay: SSTR receptor binding affinity (Ki), SSTR1; details: read-out: SSTR Specificity Ki SSTR1
[2] = target: SSTR2 (Homo sapiens, UniProt P30874); assay: SSTR receptor binding affinity (Ki), SSTR2; details: read-out: SSTR Specificity Ki SSTR2
[3] = target: SSTR3 (Homo sapiens, UniProt P32745); assay: SSTR receptor binding affinity (Ki), SSTR3; details: read-out: SSTR Specificity Ki SSTR3
[4] = target: SSTR4 (Homo sapiens, UniProt P31391); assay: SSTR receptor binding affinity (Ki), SSTR4; details: read-out: SSTR Specificity Ki SSTR4
[5] = test system: medullary thyroid carcinoma primary cultures; assay: Calcitonin secretion by MTC primary cultures (IRMA); type: cell-based, human; details: 10^−8 M, six hours
Protocol: Primary cultured cells from 18 selected MTC samples were incubated in ninety six well plates for six hours with each SSTR agonist at 10^−8 M. Control cells were treated with vehicle solution. Calcitonin levels in the conditioned medium were measured by immunoradiometric assay (IRMA) among eight replicates in the conditioned medium from treated and untreated (control) primary cultured cells. […] Data are expressed as the mean±SE percent hormone secretion inhibition vs. untreated control cells. *P<0.05 and **P<0.01 vs. control.
(§1) Tissue samples were surgically removed in accordance with the guidelines of the local comnmittees on human research. Thyroid tissue samples were obtained under sterile conditions and immediately minced in RPMI 1640 tissue culture medium. Tissues were incubated with 0.25% trypsin overnight at 4° C. and then dissociated using 0.35% collagenase (Sigma, Milano, ITALY) and 1% trypsin at 37° C. for sixty minutes. Cell suspensions were filtered through double layers of gaus(e and washed twice with serum-free F-12 Ham's Nutrient Modified Medium (F-12; Euroclone Ltd, Wetherby, UNITED KINGDOM). Tumor cells were re-suspended in F-12 with 10% fetal bovine serum and antibiotics, seeded in ninety-six well culture plates (˜2×10^4 cells/well) and incubated at 37° C. in a humidified atmosphere of 5% CO2 and 95% air according to known procedures (Zatelli, M. C. et al., Endocrinology, 2005, 146:2692-8). Approximately twenty-four hours later, the prepared cells were treated with the selected somatostatin agonist and were monitored for hormone secretion and overall viability. Informed consent of the patients was obtained for disclosing clinical investigation and performing the in vitro study.
Calcitonin levels were measured in a conditioned medium from treated and untreated primary cultured cells with the calcitonin-U.S.-IRMA® kit (Biosource Europe, Nivelles, BELGIUM) after a six hour treatment with […] of the selected somatostatin analogs. The intra- and inter-assay variation coefficients were 1.9-2.7% and 1.9-3.3%, respectively. The detection limit was 0.8 pg/ml. Hormone assays were performed in duplicate of conditioned medium from treated cells. Results were obtained by determining the mean value among eight replicates.
In order to investigate the effects of somatostatin analogs on hormone secretion, calcitonin and CgA levels were measured in conditioned media collected from primary cultures derived from the selected eighteen medullary thyroid carcinoma treated with or without each somatostatin analog at 10^−8M for six hours.
According to this criterion, […] as “responders” (group A: primary cultures #3, #5, #6, #7, #11, #12, #13, #14, #15, #16) and nine as “non responders” (group B: primary cultures #1, #2, #4, #8, #9, #10, #17, #18).

[6] = test system: medullary thyroid carcinoma primary cultures; assay: Cell viability of MTC primary cultures (MTT); type: cell-based, human; details: 10^−8 M, forty-eight hours
Protocol: Primary cultured cells from 18 selected MTC samples were incubated in ninety six well plates for forty eight hours with each SSTR agonist at 10^−8 M. Control cells were treated with vehicle solution. Cell viability was measured by a colorimetric method among eight replicates from treated and untreated (control) primary cultured cells. […] Data are expressed as the mean±SE percent cell viability reduction vs. untreated control cells. *P<0.05, and **P<0.01 vs. control.
as §1
The effects of the tested somatostatin analogs on medullary thyroid carcinoma primary culture cell viability were assessed with a Cell Proliferation Kit I MTT® (Roche Diagnostics GmbH, Mannheim, GERMANY) which employs a colorimetric method for determining the number of viable cells in proliferation assays. Primary cultured cells were plated in ninety-six multiwell plates (2×10^4 cells/well) and incubated for forty-eight hours in a medium supplemented with 10% fetal bovine serum in the presence or absence of each somatostatin analog at 10^−8M. Treatments were renewed after the first twenty-four hours of incubation.
In order to investigate the effects of somatostatin analogs on medullary thyroid carcinoma cell viability, an MTT assay was performed in primary cultures derived from the eighteen selected medullary thyroid carcinoma samples, treated with or without each somatostatin analog at […] for forty-eight hours. Percent cell viability reduction compared to a control in each primary culture under treatment with each somatostatin analog is reported in Table 6.

[7] = target: SSTR5 (Homo sapiens, UniProt P35346); assay: SSTR receptor binding affinity (Ki), SSTR5; details: read-out: SSTR Specificity Ki SSTR5
[8] = MTC primary culture #1 (non responder)
[9] = MTC primary culture #2 (non responder)
[10] = MTC primary culture #3 (responder)
[11] = MTC primary culture #4 (non responder)
[12] = MTC primary culture #5 (responder)
[13] = MTC primary culture #6 (responder)
[14] = MTC primary culture #7 (responder)
[15] = MTC primary culture #8 (non responder)
[16] = MTC primary culture #9 (non responder)
[17] = MTC primary culture #10 (non responder)
[18] = MTC primary culture #11 (responder)
[19] = MTC primary culture #12 (responder)
[20] = MTC primary culture #13 (responder)
[21] = MTC primary culture #14 (responder)
[22] = MTC primary culture #15 (responder)
[23] = MTC primary culture #16 (responder)
[24] = MTC primary culture #17 (non responder)
[25] = MTC primary culture #18 (non responder)
[26] = group B (lanreotide non-responsive) mean

Chain of SSTR5 (P35346 whole entry): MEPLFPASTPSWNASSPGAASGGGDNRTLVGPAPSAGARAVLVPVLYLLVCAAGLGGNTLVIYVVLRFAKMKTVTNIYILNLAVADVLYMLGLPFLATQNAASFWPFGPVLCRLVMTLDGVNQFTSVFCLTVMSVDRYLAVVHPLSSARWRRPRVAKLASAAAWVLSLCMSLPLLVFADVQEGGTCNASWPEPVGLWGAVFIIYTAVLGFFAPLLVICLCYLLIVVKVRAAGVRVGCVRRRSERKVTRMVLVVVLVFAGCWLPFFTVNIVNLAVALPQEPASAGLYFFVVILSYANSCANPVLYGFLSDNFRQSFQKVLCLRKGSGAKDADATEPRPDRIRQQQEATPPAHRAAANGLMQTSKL
Chain of SSTR2 (P30874 whole entry): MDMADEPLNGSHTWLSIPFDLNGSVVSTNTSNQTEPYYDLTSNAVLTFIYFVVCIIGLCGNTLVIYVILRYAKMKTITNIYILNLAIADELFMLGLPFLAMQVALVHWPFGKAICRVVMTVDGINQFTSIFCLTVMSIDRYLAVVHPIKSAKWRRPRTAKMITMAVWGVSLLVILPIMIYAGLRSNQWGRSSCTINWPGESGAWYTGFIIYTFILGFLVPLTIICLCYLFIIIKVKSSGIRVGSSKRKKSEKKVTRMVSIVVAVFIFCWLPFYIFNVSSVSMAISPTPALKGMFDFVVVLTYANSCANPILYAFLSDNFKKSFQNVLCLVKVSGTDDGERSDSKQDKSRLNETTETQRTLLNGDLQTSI
Chain of SSTR1 (P30872 whole entry): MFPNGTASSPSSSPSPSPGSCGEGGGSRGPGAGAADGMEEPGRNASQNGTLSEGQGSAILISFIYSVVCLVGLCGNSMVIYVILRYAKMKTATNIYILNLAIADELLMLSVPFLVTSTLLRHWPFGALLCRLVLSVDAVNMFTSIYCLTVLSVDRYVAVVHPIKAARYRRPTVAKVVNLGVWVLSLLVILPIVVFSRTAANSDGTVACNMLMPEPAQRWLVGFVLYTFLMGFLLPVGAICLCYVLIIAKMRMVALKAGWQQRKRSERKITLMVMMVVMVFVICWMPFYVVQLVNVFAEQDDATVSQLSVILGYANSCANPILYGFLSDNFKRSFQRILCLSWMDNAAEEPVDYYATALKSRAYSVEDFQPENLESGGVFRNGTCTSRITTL
Chain of SSTR4 (P31391 whole entry): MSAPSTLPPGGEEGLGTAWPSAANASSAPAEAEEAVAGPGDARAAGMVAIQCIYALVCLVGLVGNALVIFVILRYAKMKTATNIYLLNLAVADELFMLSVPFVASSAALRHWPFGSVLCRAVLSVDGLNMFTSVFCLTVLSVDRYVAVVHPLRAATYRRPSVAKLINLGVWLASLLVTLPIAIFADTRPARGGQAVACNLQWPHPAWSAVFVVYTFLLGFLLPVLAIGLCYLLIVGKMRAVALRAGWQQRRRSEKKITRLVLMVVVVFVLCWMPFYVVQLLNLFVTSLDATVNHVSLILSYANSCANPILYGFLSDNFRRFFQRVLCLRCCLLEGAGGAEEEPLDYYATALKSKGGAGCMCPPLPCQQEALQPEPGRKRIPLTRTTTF
Chain of SSTR3 (P32745 whole entry): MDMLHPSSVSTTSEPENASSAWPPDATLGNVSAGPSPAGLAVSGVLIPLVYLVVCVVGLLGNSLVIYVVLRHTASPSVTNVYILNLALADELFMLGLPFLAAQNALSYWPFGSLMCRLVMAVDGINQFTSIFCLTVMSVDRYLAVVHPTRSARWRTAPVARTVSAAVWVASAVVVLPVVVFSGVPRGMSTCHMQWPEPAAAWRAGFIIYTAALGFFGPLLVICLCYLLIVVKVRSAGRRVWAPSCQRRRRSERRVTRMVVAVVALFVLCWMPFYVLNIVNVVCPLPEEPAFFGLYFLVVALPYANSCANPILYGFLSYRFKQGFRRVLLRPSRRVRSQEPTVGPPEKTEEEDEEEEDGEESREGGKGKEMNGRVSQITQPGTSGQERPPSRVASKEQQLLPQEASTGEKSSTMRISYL

CC(C)[C@@H]1NC(=O)[C@H](CCCCN)NC(=O)[C@@H](Cc2c[nH]c3ccccc23)NC(=O)[C@H](Cc2ccc(O)c(I)c2)NC(=O)[C@@H](NC(=O)[C@H](N)Cc2ccccc2)CSSC[C@@H](C(=O)N[C@H](C(N)=O)[C@@H](C)O)NC1=O [Cmpd #4, D-Phe-[Cys-Tyr(I)-D-Trp-Lys-Val-Cys]-Thr-NH2]
Ki [1]: 1020 nM | Ki [2]: 0.29 nM | Ki [3]: 133 nM | Ki [4]: > 1000 nM | % CT secretion inhibition vs. control [5, 8]: −10.5% | % CT secretion inhibition vs. control [5, 9]: 5.2% | % CT secretion inhibition vs. control [5, 10]: −33.9% | % CT secretion inhibition vs. control [5, 11]: −10.3% | % CT secretion inhibition vs. control [5, 12]: −15.7% | % CT secretion inhibition vs. control [5, 13]: −12.6% | % CT secretion inhibition vs. control [5, 14]: −42.6% | % CT secretion inhibition vs. control [5, 15]: 3.6% | % CT secretion inhibition vs. control [5, 16]: −5.2% | % CT secretion inhibition vs. control [5, 17]: 12.8% | % CT secretion inhibition vs. control [5, 18]: −15.7% | % CT secretion inhibition vs. control [5, 19]: −18.5% | % CT secretion inhibition vs. control [5, 20]: −42.8% | % CT secretion inhibition vs. control [5, 21]: 8.4% | % CT secretion inhibition vs. control [5, 22]: −30.6% | % CT secretion inhibition vs. control [5, 23]: −16.2% | % CT secretion inhibition vs. control [5, 24]: 12.7% | % CT secretion inhibition vs. control [5, 25]: 5.3% | calcitonin secretion, change vs. control (signed, negative = reduced) ([5]; group A (lanreotide responsive) mean): −25% | calcitonin secretion, change vs. control (signed, negative = reduced) [5, 26]: not reduced | % cell viability reduction vs. control [6, 8]: −14.7% | % cell viability reduction vs. control [6, 9]: −38.3% | % cell viability reduction vs. control [6, 10]: 13.3% | % cell viability reduction vs. control [6, 11]: −11.3% | % cell viability reduction vs. control [6, 12]: 24.7% | % cell viability reduction vs. control [6, 13]: −10.8% | % cell viability reduction vs. control [6, 14]: 5.7% | % cell viability reduction vs. control [6, 15]: −20.6% | % cell viability reduction vs. control [6, 16]: −32.1% | % cell viability reduction vs. control [6, 17]: 6.5% | % cell viability reduction vs. control [6, 18]: 1.4% | % cell viability reduction vs. control [6, 19]: 7.4% | % cell viability reduction vs. control [6, 20]: 9.3% | % cell viability reduction vs. control [6, 21]: 1.3% | % cell viability reduction vs. control [6, 22]: 12.6% | % cell viability reduction vs. control [6, 23]: 15.0% | % cell viability reduction vs. control [6, 24]: −2.6% | % cell viability reduction vs. control [6, 25]: −7.7% | cell viability, change vs. control (signed, negative = reduced) [6, 26]: −13%

CCCN1C[C@H](CSCC(=O)NCCCC[C@@H](NC(=O)CSC[C@@H]2C[C@@H]3c4cccc5[nH]cc(c45)C[C@H]3N(CCC)C2)C(=O)N[C@H]2CSSC[C@@H](C(=O)N[C@H](C(N)=O)[C@@H](C)O)NC(=O)[C@H](CC)NC(=O)[C@H](CCCCN)NC(=O)[C@@H](Cc3c[nH]c4ccccc34)NC(=O)[C@H](Cc3ccc(O)cc3)NC2=O)C[C@@H]2c3cccc4[nH]cc(c34)C[C@H]21 [Dop2-D-Lys(Dop2)-c[Cys-Tyr-D-Trp-Lys-Abu-Cys]-Thr-NH2]
Ki [7]: 41.5 nM
